Reference: EPA's ToxValDB 9.5

Test system: Rattus norvegicus
Settings: oral
[1] = short-term, duration: 28 days, gavage, M, Sprague-Dawley, Clinical Observation: Yellow-orange urine Soft stool DiarrheaSalivation + Body Weight Changes: decrease + Food Consumption: decrease + …
[2] = short-term, duration: 28 days, gavage, F, Sprague-Dawley, Deaths + Clinical Observation: Locomotor activity decrease, Abnormal respiratory sound Deep respiration Pale skin Hypothermia Ptosis …
[3] = short-term, duration: 28 days, gavage, M, Sprague-Dawley, Deaths + Clinical Observation: Locomotor activity decrease, Abnormal respiratory sound Deep respiration Pale skin Hypothermia Ptosis …
[4] = subchronic, gavage, M, Sprague-Dawley, Deaths + Clinical Observation: Diarrhea SalivationSoft feces Decreased locomotor activity BradypneaIncomplete eyelid opening AnorexiaSoiled …
[5] = subchronic, gavage, M, Sprague-Dawley, Clinical Observation: Salivation + Water Consumption: increase + Urinalysis: Urinary volume increase + Thyroid Hormone: Thyroid hormones', '…
[6] = short-term, duration: 28 days, gavage, F, Sprague-Dawley, Clinical Observation: Salivation + Hematology: Hgb decrease, Hct decrease + Blood Chemistry: Bil increase, Bil increase(trend)gamma-GTP …
[7] = short-term, duration: 28 days, gavage, M, Sprague-Dawley, Clinical Observation: Salivation + Hematology: Hgb decrease, Hct decrease + Blood Chemistry: Bil increase, Bil increase(trend)gamma-GTP …
[8] = subchronic, gavage, M, Sprague-Dawley, Clinical Observation: Soft stool + Urinalysis: pH decrease(trend)Phosphate crystal (grade, frequency) decrease + Histopathology: Stomach-…
[9] = short-term, duration: 28 days, gavage, F, Sprague-Dawley, Clinical Observation: Soiled perigenital fur + Body Weight Changes: Gain decrease + Urinalysis: Pale yellow or yellow/slightly brownish + …
[10] = short-term, duration: 28 days, gavage, M, Sprague-Dawley, Clinical Observation: Soiled perigenital fur + Body Weight Changes: Gain decrease + Urinalysis: Pale yellow or yellow/slightly brownish + …

NS(=O)(=O)Cc1noc2ccccc12 [Zonisamide]
NOAEL (short-term, duration: 28 days, gavage, M/F, Sprague-Dawley, Deaths + Clinical Observation: Locomotor activity decrease, Ataxic gait Hypotonia, Abdominal region + Body Weight Changes: Body weight gain …): 20 mg/kg-day

O=C(O)C(Cl)(Cl)Cl [Trichloroacetic acid]
NOEL (short-term, duration: 28 days, gavage, M/F, Clinical Observation: Salivation Soft feces Locomotor activity decrease + Urinalysis: Ketone body increase + Hematology: WBC increase, Trend…): 40 mg/kg-day

Nc1cc([N+](=O)[O-])ccc1O [2-Amino-4-nitrophenol]
NOAEL [1]: < 150 mg/kg-day | NOEL [1]: < 150 mg/kg-day | NOEL (subchronic, duration: 13 weeks, gavage, M/F, Fischer 344, Deaths + Body Weight Changes: decrease + Absolute Organ Weight: Liver increase + Relative Organ Weight: Liver increase + Histopathology: …): 125 mg/kg-day

CC(C)(C1CCC(O)CC1)C1CCC(O)CC1 (centres undefined) [4,4'-Propane-2,2-diyldicyclohexanol]
NOEL (subchronic, gavage, M, Sprague-Dawley, Hematology: APTT increase, PT increase + Blood Chemistry: TG increase, TP increase, Ca increasegamma-GTP increase, Glu decrease, Cho …): 20 mg/kg-day

CSCCC=O [3-(Methylthio)propanal]
NOAEL (short-term, duration: 28 days, gavage, M/F, Wistar, Body Weight Changes: Mean body weight decrease, Weight gain decrease + Hematology: RBC decrease, HGB decrease + Blood Chemistry: T-Bil …): 104 mg/kg-day

C(COCC1CO1)OCC1CO1 (centres undefined) [Ethylene glycol diglycidyl ether]
NOEL (subchronic, duration: 42 days, gavage, M, CD(SD), Clinical Observation: Salivation + Body Weight Changes: decrease + Food Consumption: decrease + Blood Chemistry: TG decrease + …): 12.5 mg/kg-day

CCC[CH2][Sn]([CH2]CCC)([CH2]CCC)[CH2]CCC [Tetrabutyltin]
NOAEL (subchronic, duration: 33 days, diet, M, Wistar, Body Weight Changes: Weight gain decrease + Absolute Organ Weight: Thymus decrease + Relative Organ Weight: Thymus decrease, Spleen decrease…): 9.6 mg/kg-day

CN(c1nccc(=O)[nH]1)C1CCN(c2nc3ccccc3n2Cc2ccc(F)cc2)CC1 [Mizolastine]
NOAEL (chronic, duration: 182 days, gavage, M/F, Sprague-Dawley, Clinical Observation: Salivation + Urinalysis: Volume increase + Blood Chemistry: IP increase + Absolute Organ Weight: Liver increase, …): 5 mg/kg-day

O=C(CO)[C@@H](O)[C@H](O)[C@H](O)CO[C@H]1O[C@H](CO)[C@@H](O)[C@H](O)[C@H]1O [6-O-Hexopyranosylhex-2-ulofuranose]
NOEL (subchronic, duration: 13 weeks, diet, Wistar): 10%

Cl.Nc1ccccc1-c1ccccc1 [2-Biphenylamine hydrochloride]
NOEL (subchronic, duration: 13 weeks, diet, M/F, Fischer 344, Histopathology: Spleen-Congestion Spleen-Extramedullary hematopoiesis Spleen-Hemosiderosis Spleen-Thickened capsule Spleen-Lymphoid atrophy …): 28.8 mg/kg-day

CN(C)c1ccc(C(=C2C=CC(=[N+](C)C)C=C2)c2ccccc2)cc1.[Cl-] [Malachite green]
NOEL (subchronic, diet, M/F, Fischer 344, Body Weight Changes: decrease + Hematology: Hct decrease, RBC decrease, Hgb decrease + Blood Chemistry: Cho increase, gamma-GTP increase + …): 12 mg/kg-day

COCCC(=O)OC [Methyl 3-methoxypropionate]
NOEL (subchronic, duration: 42 days, gavage, M, Sprague-Dawley, Clinical Observation: Salivation + Food Consumption: decrease + Urinalysis: Volume increasep H decrease + Hematology: Mono increase + Blood …): 62.5 mg/kg-day

c1ccc(Nc2ccc3ccccc3c2)cc1 [N-Phenyl-2-naphthylamine]
NOEL (subchronic, duration: 13 weeks, diet, M/F, Fischer 344, Deaths + Clinical Observation: Rough coats + Body Weight Changes: decrease + Absolute Organ Weight: Liver increase + Relative Organ Weight…): 240 mg/kg-day

CCCCC(CC)(CO)CO [2-Butyl-2-ethyl-1,3-propanediol]
NOAEL (subchronic, gavage, M, Sprague-Dawley, Clinical Observation: Staggering gait + Water Consumption: increase + Urinalysis: pH decrease + Hematology: LYMPH increase, NEUT decrease + …): 20 mg/kg-day

CCCCCCOCCOCCO [2-[2-(Hexyloxy)ethoxy]ethanol]
NOAEL (subchronic, duration: 53 days, diet, M, SD(CD), Body Weight Changes: Mean body weight decrease + Food Consumption: decrease + Urinalysis: pH decrease + Relative Organ Weight: Liver …): 300 mg/kg-day

O=[N+]([O-])C(Br)(CO)CO [Bronopol]
LOEL [2]: 30 mg/kg-day | NOEL [2]: 10 mg/kg-day | LOEL [3]: 90 mg/kg-day | NOEL [3]: 30 mg/kg-day

ClCBr [Bromochloromethane]
NOEL (subchronic, duration: 42 days, gavage, M, CD(SD), Absolute Organ Weight: Liver increase + Relative Organ Weight: Liver increase + Necropsy: Stomach-Dark red focus, glandular stomach + …): 30 mg/kg-day

CCc1cc(Cc2cc(CC)cc(C(C)(C)C)c2O)c(O)c(C(C)(C)C)c1 [2,2'-Methylenebis(ethyl-6-tert-butylphenol)]
NOAEL [4]: 30 mg/kg-day | NOEL [4]: < 30 mg/kg-day

CN(C)c1ccc(C(c2ccccc2)c2ccc(N(C)C)cc2)cc1 [Leucomalachite green]
NOEL (subchronic, diet, M, Fischer 344, Body Weight Changes: decrease + Hematology: Hct decrease, Hgb decrease, RBC decrease, Ret increase + Blood Chemistry: Alb decrease, Cho …): < 27.8 mg/kg-day

c1cc(OCC2CO2)cc(OCC2CO2)c1 (centres undefined) [Diglycidyl resorcinol ether]
NOEL (subchronic, duration: 13 weeks, gavage, M/F, Fischer 344, Deaths + Body Weight Changes: decrease + Histopathology: Stomach/forestomach-Inflammation Stomach/forestomach-Basal cell hyperplasia Stomach…): < 12.5 mg/kg-day

OCC1CO1 (centres undefined) [Glycidol]
NOEL (subchronic, duration: 13 weeks, gavage, M/F, Fischer 344, Deaths + Body Weight Changes: decrease + Absolute Organ Weight: -- + Histopathology: Brain /cerebellum-Necrosis Brain-Demyelination Kidney-…): < 25 mg/kg-day

O=C(Cl)c1ccc(Cl)cc1 [4-Chlorobenzoyl chloride]
LOEL [5]: 500 mg/kg-day | NOEL [5]: 100 mg/kg-day

O.O.[Ba+2].[Cl-].[Cl-] [Barium chloride dihydrate]
NOEL (subchronic, duration: 13 weeks, water, F, Fischer 344, Deaths + Body Weight Changes: decrease + Water Consumption: decrease + Blood Chemistry: Pi increase + Absolute Organ Weight: Kidney increase…): 10 mg/kg-day | NOEL (subchronic, duration: 13 weeks, water, M/F, Fischer 344, Deaths + Body Weight Changes: decrease + Water Consumption: decrease + Blood Chemistry: Pi increase + Absolute Organ Weight: Kidney increase…): 19 mg/kg-day

CCC1CCCCC1 [Ethylcyclohexane]
LOEL [6]: 200 mg/kg-day | NOEL [6]: 40 mg/kg-day | LOEL [7]: 200 mg/kg-day | NOEL [7]: 40 mg/kg-day

CC(O)c1ccccc1 (stereo not drawn) [alpha-Methylbenzyl alcohol]
NOEL (subchronic, duration: 13 weeks, gavage, M/F, Fischer 344, Deaths + Clinical Observation: Ataxia Rapid breathing Lethargy + Body Weight Changes: decrease + Urinalysis: -- + Absolute Organ Weight: …): < 93 mg/kg-day

Oc1ccc(Cl)cc1Cc1ccccc1 [Clorophene]
NOEL (subchronic, duration: 13 weeks, gavage, M/F, Fischer 344, Deaths + Clinical Observation: Red-yellow staining of urogenital region hair coat Alopecia of head Brown discoloration of hair coat around …): < 30 mg/kg-day

COc1c(Cl)c(Cl)c(Cl)c(Cl)c1Cl [Pentachloroanisole]
NOEL (subchronic, duration: 13 weeks, gavage, M/F, Fischer 344, Deaths + Clinical Observation: Labored respiration + Body Weight Changes: decrease + Blood Chemistry: Ch E decrease + Absolute Organ Weight…): < 40 mg/kg-day

COc1cc(N)ccc1NC(=O)c1ccc(N)cc1 [4-Amino-N-(4-amino-2-methoxyphenyl)benzamide]
NOEL (short-term, duration: 28 days, gavage, M/F, Deaths + Clinical Observation: Locomotor activity increase, Tremor (temporary)Loss of righting reflex Motor ataxia Lethargy (severe) + Blood…): 10 mg/kg-day

CCCCC(CC)COP(=O)(O)CC(CC)CCCC (centres undefined) [Phosphonic acid, P-(2-ethylhexyl)-, mono(2-ethylhexyl) ester]
NOEL (subchronic, gavage, M, Sprague-Dawley, Hematology: Hgb decrease, Hct decrease + Blood Chemistry: Alb increase, A/G increase + Absolute Organ Weight: Liver increase + Relative …): 30 mg/kg-day

CC(C)N1C(=O)C=CC1=O [1-(Propan-2-yl)-1H-pyrrole-2,5-dione]
NOEL (short-term, duration: 28 days, gavage, M/F, Clinical Observation: Salivation + Organ Weight: Liver increase, Kidney increase + Necropsy: Liver- Enlargement Kidney- Enlargement): 40 mg/kg-day

O=[N+]([O-])c1ccc(Nc2ccc(Nc3ccccc3)c(S(=O)(=O)[O-])c2)c([N+](=O)[O-])c1.[Na+] [C.I. Acid Orange 3]
NOEL (subchronic, duration: 13 weeks, gavage, M/F, Fischer 344, Deaths + Body Weight Changes: decrease + Histopathology: Kidney-Nephrosis Kidney-Suppurative inflammation Kidney/Renal papilla - Necrosis …): 750 mg/kg-day

O=C(O)c1cc(C(=O)O)c(C(=O)O)cc1C(=O)O [Pyromellitic acid]
LOEL [8]: 100 mg/kg-day | NOEL [8]: < 100 mg/kg-day

COC(=O)C1=C(C)NC(C)=C(C(=O)OCCN(C)Cc2ccccc2)C1c1cccc([N+](=O)[O-])c1.Cl (centres undefined) [Nicardipine hydrochloride]
NOEL (subchronic, duration: 35 days, gavage, M/F, Sprague-Dawley, Deaths + Clinical Observation: Locomotor activity decrease, Prone position Dyspnea Ataxic gait Ptosis Piloerection Respiratory rate increase…): 10 mg/kg-day

Oc1cccc2cccnc12 [8-Hydroxyquinoline]
NOEL (subchronic, gavage, M, Sprague-Dawley, Clinical Observation: Salivation + Functional Observational Battery: Salivation + Body Weight Changes: Body weight gain decrease(tendency)…): 100 mg/kg-day

CCC(C)(C)c1ccccc1 [tert-Pentylbenzene]
LOEL [9]: 1000 mg/kg-day | NOEL [9]: 300 mg/kg-day | LOEL [10]: 100 mg/kg-day | NOEL [10]: < 100 mg/kg-day

C[Si](C)(C)O [Trimethylsilanol]
NOAEL (short-term, duration: 28 days, gavage, M/F, Wistar, Clinical Observation: Staggering gait + Body Weight Changes: Body weight gain decrease + Relative Organ Weight: Liver increase + …): 250 mg/kg-day

Nc1ccc(Nc2ccccc2)cc1 [N-Phenyl-1,4-benzenediamine]
NOAEL (subchronic, duration: 90 days, diet, M, Wistar, Body Weight Changes: Body weight gain decrease + Food Consumption: decrease + Hematology: RBC decrease, HGB decrease, HCT decrease, MCV …): 96 mg/kg-day

CCC(C)c1cc(C(C)(C)C)cc(-n2nc3ccccc3n2)c1O (centres undefined) [2-(2H-Benzotriazol-2-yl)-6-(butan-2-yl)-4-tert-butylphenol]
NOAEL (subchronic, duration: 42 days, gavage, M, Sprague-Dawley, Hematology: HGB decrease + Blood Chemistry: TP increase, Alb increase, A/G increase, ALP increase, ChE increase + Absolute Organ Weight: …): 4 mg/kg-day | NOEL (subchronic, gavage, M, Sprague-Dawley, Blood Chemistry: TG decrease PL decrease Alb increase A/G increase Alp increase + Absolute Organ Weight: Liver increase + Relative Organ …): < 0.5 mg/kg-day
